# Experiments:
# Assay type in all cases: cell-based
# [1] = test system: STAPHYLOCOCCUS AUREUS ATCC 6538P; experiment: In vitro antibacterial activity, MIC, BHI agar dilution; conditions: S. aureus ATCC 6538P, 35-37° C., 20 to 24 hours, unit assumed
# [2] = test system: STAPHYLOCOCCUS AUREUS A5177; experiment: as above; conditions: S. aureus A5177, unit assumed
# [3] = test system: STAPHYLOCOCCUS AUREUS A-5278; experiment: as above; conditions: S. aureus A-5278, unit assumed
# [4] = test system: STAPHYLOCOCCUS AUREUS CMX 642A; experiment: as above; conditions: S. aureus CMX 642A, unit assumed
# [5] = test system: STAPHYLOCOCCUS AUREUS NCTC10649M; experiment: as above; conditions: S. aureus NCTC10649M, unit assumed
# [6] = test system: STAPHYLOCOCCUS AUREUS CMX 553; experiment: as above; conditions: S. aureus CMX 553, unit assumed
# [7] = test system: STAPHYLOCOCCUS AUREUS 1775; experiment: as above; conditions: S. aureus 1775, unit assumed
# [8] = test system: STAPHYLOCOCCUS EPIDERMIDIS 3519; conditions: S. epidermidis 3519; BHI agar; unit assumed
# EN[…] ATCC 8043 = experiment: In vitro antibacterial activity, MIC, BHI agar dilution; conditions: E. faecium ATCC 8043, unit assumed
# In short: (§1)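 Twelve successive aqueous dilutions of compound in Brain Heart Infusion agar were inoculated with 1:100 culture dilutions (1:10 for slow growers such as Micrococcus, Streptococcus) by Steers replicator and incubated at 35-37° C for 20 to 24 hours. MIC was the lowest concentration giving no growth, slight haze or sparse colonies versus drug-free control.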
# M[…] ATCC 4698 = experiment: as above; conditions: M. luteus ATCC 4698, unit assumed
# In short: as §1
# M[…] ATCC 9341 = experiment: as above; conditions: M. luteus ATCC 9341, unit assumed
# In short: as §1
# STR[…] 508 = experiment: as above; conditions: S. agalactiae CMX 508, unit assumed
# In short: as §1
# [9] = test system: STREPTOCOCCUS BOVIS A-5169; experiment: as above; conditions: S. bovis A-5169, unit assumed
# [10] = test system: STREPTOCOCCUS PYOGENES EES61; experiment: as above; conditions: S. pyogenes EES61, unit assumed
# [11] = test system: STREPTOCOCCUS PYOGENES 930; experiment: as above; conditions: S. pyogenes 930, unit assumed
# [12] = test system: STREPTOCOCCUS PYOGENES PIU 2548; experiment: as above; conditions: S. pyogenes PIU 2548, unit assumed
# ESCHERICHIA COLI SS = experiment: as above; conditions: E. coli SS, unit assumed
# ESCHERICHIA COLI DC-2 = experiment: as above; conditions: E. coli DC-2, unit assumed
# ESCHERICHIA COLI H560 = experiment: as above; conditions: E. coli H560, unit assumed
# ESCHERICHIA COLI KNK 437 = conditions: E. coli KNK 437; BHI agar; unit assumed
# [13] = test system: ENTEROBACTER AEROGENES ATCC 13048; experiment: In vitro antibacterial activity, MIC, BHI agar dilution; conditions: E. aerogenes ATCC 13048, unit assumed
# [14] = test system: KLEBSIELLA PNEUMONIAE ATCC 8045; experiment: as above; conditions: K. pneumoniae ATCC 8045, unit assumed
# [15] = test system: PROVIDENCIA STUARTII CMX 640; conditions: P. stuartii CMX 640; BHI agar; unit assumed
# [16] = test system: PSEUDOMONAS AERUGINOSA BMH10; experiment: In vitro antibacterial activity, MIC, BHI agar dilution; conditions: P. aeruginosa BMH10, unit assumed
# [17] = test system: PSEUDOMONAS AERUGINOSA 5007; experiment: as above; conditions: P. aeruginosa 5007, unit assumed
# [18] = test system: PSEUDOMONAS AERUGINOSA K799/WT; experiment: as above; conditions: P. aeruginosa K799/WT, unit assumed
# [19] = test system: PSEUDOMONAS AERUGINOSA K799/61; experiment: as above; conditions: P. aeruginosa K799/61, unit assumed
# PSEUDOMONAS CEPACIA 296I = experiment: as above; conditions: P. cepacia 296I, unit assumed
# [20] = test system: ACINETOBACTER CALCOACETICUS CMX 669; experiment: as above; conditions: A. calcoaceticus CMX 669, unit assumed
# [21] = test system: PSEUDOMONAS AERUGINOSA DPHD-5263; experiment: as above; conditions: P. aeruginosa DPHD-5263, unit assumed
# [22] = test system: PSEUDOMONAS AERUGINOSA DPHD-2862; experiment: as above; conditions: P. aeruginosa DPHD-2862, unit assumed
# CANDIDA ALBICANS CCH 442 = experiment: as above; conditions: C. albicans CCH 442, unit assumed
# [23] = test system: MYCOBACTERIUM SMEGMATIS ATCC 114; experiment: as above; conditions: M. smegmatis ATCC 114, unit assumed
SMILES,MIC [1] [µg/mL],MIC [2] [µg/mL],MIC [3] [µg/mL],MIC [4] [µg/mL],MIC [5] [µg/mL],MIC [6] [µg/mL],MIC [7] [µg/mL],MIC [8] [µg/mL],MIC (EN[…] ATCC 8043) [µg/mL],MIC (M[…] ATCC 4698) [µg/mL],MIC (M[…] ATCC 9341) [µg/mL],MIC (STR[…] 508) [µg/mL],MIC [9] [µg/mL],MIC [10] [µg/mL],MIC [11] [µg/mL],MIC [12] [µg/mL],MIC (ESCHERICHIA COLI SS) [µg/mL],MIC (ESCHERICHIA COLI DC-2) [µg/mL],MIC (ESCHERICHIA COLI H560) [µg/mL],MIC (ESCHERICHIA COLI KNK 437) [µg/mL],also measured
CC[C@H]1OC(=O)[C@H](C)C(=O)[C@H](C)[C@@H](O[C@@H]2O[C@H](C)C[C@H](N(C)C)[C@H]2O)[C@](C)(OC)C[C@@H](C)C2=NC[C@H](Cc3ccc(OCc4ccccc4)cc3)N3C(=O)O[C@@]1(C)[C@H]3[C@H]2C [Example 64],0.39,0.2,50,0.39,0.2,0.2,50,0.39,0.2,0.78,0.1,0.1,0.1,0.05,25,0.78,6.2,> 100,> 100,> 100,MIC [13]: > 100 µg/mL; MIC [14]: > 100 µg/mL; MIC [15]: > 100 µg/mL; MIC [16]: > 100 µg/mL; MIC [17]: > 100 µg/mL; MIC [18]: > 100 µg/mL; MIC [19]: 12.5 µg/mL; MIC (PSEUDOMONAS CEPACIA 296I): > 100 µg/mL; MIC [20]: > 100 µg/mL; MIC [21]: > 100 µg/mL; MIC [22]: > 100 µg/mL; MIC (CANDIDA ALBICANS CCH 442): 50 µg/mL; MIC [23]: 1.56 µg/mL
CC[C@H]1OC(=O)[C@H](C)C(=O)[C@H](C)[C@@H](O[C@@H]2O[C@H](C)C[C@H](N(C)C)[C@H]2O)[C@](C)(OC)C[C@@H](C)C2=NC[C@H](Cc3ccc(NC(=O)OCc4ccccc4)cc3)N3C(=O)O[C@@]1(C)[C@H]3[C@H]2C [Example 68],0.2,0.2,> 100,0.2,0.2,0.2,> 100,0.39,0.2,0.39,0.1,0.05,0.05,0.1,50,0.78,1.56,100,50,> 100,MIC [13]: > 100 µg/mL; MIC [14]: > 100 µg/mL; MIC [15]: > 100 µg/mL; MIC [16]: > 100 µg/mL; MIC [17]: > 100 µg/mL; MIC [18]: > 100 µg/mL; MIC [19]: 3.1 µg/mL; MIC (PSEUDOMONAS CEPACIA 296I): > 100 µg/mL; MIC [20]: 100 µg/mL; MIC [21]: > 100 µg/mL; MIC [22]: > 100 µg/mL; MIC (CANDIDA ALBICANS CCH 442): > 100 µg/mL; MIC [23]: 3.1 µg/mL
CC[C@H]1OC(=O)[C@H](C)C(=O)[C@H](C)[C@@H](O[C@@H]2O[C@H](C)C[C@H](N(C)C)[C@H]2O)[C@](C)(OC)C[C@@H](C)C2=NC3COCC3N3C(=O)O[C@@]1(C)[C@H]3[C@H]2C (stereo partly drawn) [Example 108],0.39,0.39,> 100,0.78,0.78,0.78,> 100,1.56,0.2,0.78,0.1,0.1,0.02,0.1,> 100,0.39,0.78,> 100,> 100,> 100,MIC [13]: > 100 µg/mL; MIC [14]: > 100 µg/mL; MIC [15]: > 100 µg/mL; MIC [16]: > 100 µg/mL; MIC [17]: > 100 µg/mL; MIC [18]: > 100 µg/mL; MIC [19]: 6.2 µg/mL; MIC (PSEUDOMONAS CEPACIA 296I): > 100 µg/mL; MIC [20]: 100 µg/mL; MIC [21]: > 100 µg/mL; MIC [22]: > 100 µg/mL; MIC (CANDIDA ALBICANS CCH 442): > 100 µg/mL; MIC [23]: 12.5 µg/mL
